Structures can show the parent of a compound that is named as a salt.
How the values were obtained:
[1] = molecular target: T1, Recombinant human IKKβ (residues 1-737) (Homo sapiens, UniProt O14920); assay: IKK2 assay (TR-FRET); type: biochemical; conditions: ATP 1 μM final, read-out: pIC50 against IKK2 (converted)
T1 construct: Recombinant human IKKβ (residues 1-737); GST (C); made in house
T1 sequence (O14920 1-737): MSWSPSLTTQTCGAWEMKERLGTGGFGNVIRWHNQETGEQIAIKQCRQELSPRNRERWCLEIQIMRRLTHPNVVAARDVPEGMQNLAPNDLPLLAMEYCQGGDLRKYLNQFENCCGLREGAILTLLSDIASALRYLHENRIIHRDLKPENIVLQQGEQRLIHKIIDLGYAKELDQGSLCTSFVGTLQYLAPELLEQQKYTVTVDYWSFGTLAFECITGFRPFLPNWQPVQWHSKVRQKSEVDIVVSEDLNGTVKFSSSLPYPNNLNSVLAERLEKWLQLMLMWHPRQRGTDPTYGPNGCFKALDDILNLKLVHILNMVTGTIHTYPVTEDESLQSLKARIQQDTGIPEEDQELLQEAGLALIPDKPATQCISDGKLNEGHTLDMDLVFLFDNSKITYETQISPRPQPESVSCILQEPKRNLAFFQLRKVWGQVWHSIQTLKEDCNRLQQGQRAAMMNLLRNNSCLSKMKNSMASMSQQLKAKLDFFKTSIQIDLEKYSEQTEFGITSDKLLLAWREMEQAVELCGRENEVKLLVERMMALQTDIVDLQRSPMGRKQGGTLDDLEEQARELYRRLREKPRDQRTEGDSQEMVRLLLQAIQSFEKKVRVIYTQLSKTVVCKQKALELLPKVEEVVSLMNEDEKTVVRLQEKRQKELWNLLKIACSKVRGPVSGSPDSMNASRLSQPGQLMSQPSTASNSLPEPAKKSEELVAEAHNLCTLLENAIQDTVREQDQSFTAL
Method in brief: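 Baculovirus-expressed C-terminal GST-tagged IKKβ (0.5-5 nM final) in HEPES pH 7.4, MgCl2, CHAPS, DTT, BSA with 1.7% DMSO; 25 nM GST-IB substrate and 1 μM ATP, 15 min at room temperature. EDTA stop; phospho-Ser32/36 detected by Eu-antibody/APC-anti-GST TR-FRET, 665/620 nm ratio.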

[2] = system: human monocyte stimulated cytokine production (TNF-α); assay: Monocyte assay (LPS-stimulated TNF-α production); type: cell-based; conditions: 24 h, 200 ng/mL LPS, TNF-α by ELISA
Method in brief: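 Human CD14+ monocytes were purified from blood and plated at 1×10^6 cells/mL in RPMI 1640 with 10% FBS. Compound was added 30 min before stimulation with 200 ng/mL LPS (0.1% DMSO final), followed by 24 hrs at 37 C. Supernatant TNF-α was measured by ELISA, and viability by trypan blue exclusion.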

Compound | IC50 [1] | IC50 [2]
CCS(=O)(=O)N1CCC(c2c[nH]c3c(C(N)=O)cc(-c4cccc(CNC(=O)C5CCC5)c4)cc23)CC1 [Example 367, 5-(3-{[(cyclobutylcarbonyl)amino]methyl}phenyl)-3-[1-(ethylsulfonyl)-4-piperidinyl]-1H-indole-7-carboxamide] | ≤ 10 µM | ≤ 1.5 µM
CCS(=O)(=O)N1CCC(c2c[nH]c3c(C(N)=O)cc(-c4cccc(CN5CCNCC5)c4)cc23)CC1 [Example 2, 3-[1-(ethylsulfonyl)-4-piperidinyl]-5-[3-(1-piperazinylmethyl)phenyl]-1H-indole-7-carboxamide] | ≤ 10 µM | ≤ 1.5 µM
CCS(=O)(=O)N1CCC(c2c[nH]c3c(C(N)=O)cc(-c4csc(CN5CCCC5C)c4)cc23)CC1 (stereo not drawn) [Example 104, 3-[1-(ethylsulfonyl)-4-piperidinyl]-5-{5-[(2-methyl-1-pyrrolidinyl)methyl]-3-thienyl}-1H-indole-7-carboxamide trifluoroacetate] | ≤ 10 µM | ≤ 1.5 µM
CCS(=O)(=O)N1CCC(c2c[nH]c3c(C(N)=O)cc(-c4ccc(CNC(=O)c5ccco5)cc4)cc23)CC1 [Example 131, 3-[1-(ethylsulfonyl)-4-piperidinyl]-5-(4-{[(2-furanylcarbonyl)amino]methyl}phenyl)-1H-indole-7-carboxamide] | ≤ 10 µM | ≤ 1.5 µM
CCCCN(C)Cc1cc(-c2cc(C(N)=O)c3[nH]cc(C4CCN(S(=O)(=O)CC)CC4)c3c2)cs1 [Example 67, 5-(5-{[butyl(methyl)amino]methyl}-3-thienyl)-3-[1-(ethylsulfonyl)-4-piperidinyl]-1H-indole-7-carboxamide trifluoroacetate] | ≤ 10 µM | ≤ 1.5 µM
CCN(CC)Cc1cc(-c2cc(C(N)=O)c3[nH]cc(C4CCN(S(=O)(=O)CC)CC4)c3c2)cs1 [Example 107, 5-{5-[(diethylamino)methyl]-3-thienyl}-3-[1-(ethylsulfonyl)-4-piperidinyl]-1H-indole-7-carboxamide trifluoroacetate] | ≤ 10 µM | ≤ 1.5 µM
CCS(=O)(=O)N1CCC(c2c[nH]c3c(C(N)=O)cc(-c4cc(CN[C@H](C)C(C)C)ccc4F)cc23)CC1 [Example 338, 5-[5-({[(1R)-1,2-dimethylpropyl]amino}methyl)-2-fluorophenyl]-3-[1-(ethylsulfonyl)-4-piperidinyl]-1H-indole-7-carboxamide trifluoroacetate] | ≤ 10 µM | > 1 µM
CCS(=O)(=O)N1CCC(c2c[nH]c3c(C(N)=O)cc(-c4cnn(CCNCC(C)C)c4)cc23)CC1 [Example 260, 3-[1-(ethylsulfonyl)-4-piperidinyl]-5-(1-{2-[(2-methylpropyl)amino]ethyl}-1H-pyrazol-4-yl)-1H-indole-7-carboxamide trifluoroacetate] | ≤ 10 µM | > 1 µM
CCNCCc1ccc(-c2cc(C(N)=O)c3[nH]cc(C4CCN(S(=O)(=O)CC)CC4)c3c2)cc1 [Example 127, 5-{4-[2-(ethylamino)ethyl]phenyl}-3-[1-(ethylsulfonyl)-4-piperidinyl]-1H-indole-7-carboxamide] | ≤ 10 µM | ≤ 1.5 µM
CCS(=O)(=O)N1CCC(c2c[nH]c3c(C(N)=O)cc(-c4cc(CNCC(F)(F)F)ccc4F)cc23)CC1 [Example 36, 3-[1-(ethylsulfonyl)-4-piperidinyl]-5-(2-fluoro-5-{[(2,2,2-trifluoroethyl)amino]methyl}phenyl)-1H-indole-7-carboxamide trifluoroacetate] | ≤ 10 µM | > 1 µM
CCC(CC)CNCc1ccc(-c2cc(C(N)=O)c3[nH]cc(C4CCN(S(=O)(=O)CC)CC4)c3c2)s1 [Example 192, 5-(5-{[(2-ethylbutyl)amino]methyl}-2-thienyl)-3-[1-(ethylsulfonyl)-4-piperidinyl]-1H-indole-7-carboxamide] | ≤ 10 µM | > 1 µM
CCS(=O)(=O)N1CCC(c2c[nH]c3c(C(N)=O)cc(-c4cccc(C5CSCCN5)c4)cc23)CC1 (stereo not drawn) [Example 297, 3-[1-(ethylsulfonyl)-4-piperidinyl]-5-[3-(3-thiomorpholinyl)phenyl]-1H-indole-7-carboxamide trifluoroacetate] | ≤ 10 µM | ≤ 1.5 µM
CCS(=O)(=O)N1CCC(c2c[nH]c3c(C(N)=O)cc(-c4cccc(CN[C@H](C)C(C)(C)C)c4)cc23)CC1 [Example 311, 3-[1-(ethylsulfonyl)-4-piperidinyl]-5-[3-({[(1R)-1,2,2-trimethylpropyl]amino}methyl)phenyl]-1H-indole-7-carboxamide] | ≤ 10 µM | ≤ 1.5 µM
CCC(CC)NCc1cccc(-c2cc(C(N)=O)c3[nH]cc(C4CCN(S(=O)(=O)CC)CC4)c3c2)c1 [Example 26, 5-(3-{[(1-ethylpropyl)amino]methyl}phenyl)-3-[1-(ethylsulfonyl)-4-piperidinyl]-1H-indole-7-carboxamide] | ≤ 10 µM | ≤ 1.5 µM
CCS(=O)(=O)N1CCC(c2c[nH]c3c(C(N)=O)cc(-c4ccc(F)c(CNC(CO)CO)c4)cc23)CC1 [Example 272, 3-[1-(ethylsulfonyl)-4-piperidinyl]-5-[4-fluoro-3-({[2-hydroxy-1-(hydroxymethyl)ethyl]amino}methyl)phenyl]-1H-indole-7-carboxamide trifluoroacetate (salt)] | ≤ 10 µM | > 1 µM
CCS(=O)(=O)N1CCC(c2c[nH]c3c(C(N)=O)cc(-c4cccc(N)c4)cc23)CC1 [Example 166, 5-(3-aminophenyl)-3-[1-(ethylsulfonyl)-4-piperidinyl]-1H-indole-7-carboxamide] | ≤ 10 µM | ≤ 1.5 µM
CCS(=O)(=O)N1CCC(c2c[nH]c3c(C(N)=O)cc(-c4csc(CN(C)Cc5ccncc5)c4)cc23)CC1 [Example 78, 3-[1-(ethylsulfonyl)-4-piperidinyl]-5-(5-{[methyl(4-pyridinylmethyl)amino]methyl}-3-thienyl)-1H-indole-7-carboxamide trifluoroacetate] | ≤ 10 µM | ≤ 1.5 µM
CCS(=O)(=O)N1CCC(c2c[nH]c3c(C(N)=O)cc(-c4csc(CNC[C@@H]5CCCO5)c4)cc23)CC1 [Example 119, 3-[1-(ethylsulfonyl)-4-piperidinyl]-5-[5-({[(2S)-tetrahydro-2-furanylmethyl]amino}methyl)-3-thienyl]-1H-indole-7-carboxamide trifluoroacetate] | ≤ 10 µM | ≤ 1.5 µM
CCS(=O)(=O)N1CCC(c2c[nH]c3c(C(N)=O)cc(-c4csc(CNCC5CCCC5)c4)cc23)CC1 [Example 112, 5-(5-{[(cyclopentylmethyl)amino]methyl}-3-thienyl)-3-[1-(ethylsulfonyl)-4-piperidinyl]-1H-indole-7-carboxamide trifluoroacetate] | ≤ 10 µM | ≤ 1.5 µM
CCS(=O)(=O)N1CCC(c2c[nH]c3c(C(N)=O)cc(-c4ccc(CN5CCCC5C)s4)cc23)CC1 (stereo not drawn) [Example 167, 3-[1-(ethylsulfonyl)-4-piperidinyl]-5-{5-[(2-methyl-1-pyrrolidinyl)methyl]-2-thienyl}-1H-indole-7-carboxamide] | ≤ 10 µM | ≤ 1.5 µM
CCS(=O)(=O)N1CCC(c2c[nH]c3c(C(N)=O)cc(-c4ccc(CN5CCCCC5)cc4)cc23)CC1 [Example 27, 3-[1-(ethylsulfonyl)-4-piperidinyl]-5-[4-(1-piperidinylmethyl)phenyl]-1H-indole-7-carboxamide] | ≤ 10 µM | ≤ 1.5 µM

— US8063071B2 (GlaxoSmithKline, LLC, priority 2007, dated 2011)
